ChEMBL document CHEMBL1201862, “PubChem BioAssay data set” (2004)
Active and inactive are the calls of the source.

Legend:
Bcl-2-like protein 10 = Bcl-2-like protein 10 (Homo sapiens, UniProt Q9HD36); test: displacers of TR3 peptide from Bcl-B, primary screen, selectivity assay for Bfl-1 inhibitor project, biochemical, fluorescence polarization, FITC-TR3 peptide (AID 748);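 note: fluorescence polarization from a fluorescein-labelled TR3 peptide binding purified Bcl-B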
[1] = molecular target: Induced myeloid leukemia cell differentiation protein Mcl-1 (Homo sapiens, UniProt Q07820); type: functional
Sequence of Induced myeloid leukemia cell differentiation protein Mcl-1 (Q07820 whole entry): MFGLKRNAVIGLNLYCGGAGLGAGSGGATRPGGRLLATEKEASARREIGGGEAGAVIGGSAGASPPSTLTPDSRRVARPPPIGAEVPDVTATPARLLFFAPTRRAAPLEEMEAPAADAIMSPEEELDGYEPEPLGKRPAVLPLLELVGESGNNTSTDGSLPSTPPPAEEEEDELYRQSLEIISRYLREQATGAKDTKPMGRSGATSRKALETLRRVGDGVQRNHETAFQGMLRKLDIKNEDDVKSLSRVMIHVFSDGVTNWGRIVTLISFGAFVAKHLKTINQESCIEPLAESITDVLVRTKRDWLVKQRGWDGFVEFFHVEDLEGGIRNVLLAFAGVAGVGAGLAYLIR

Ephrin type-A receptor 4 = Ephrin type-A receptor 4 (Mus musculus, UniProt Q03137); test: inhibitors of EphA4 binding to KYL peptide, primary screen, biochemical, colorimetric, mouse EphA4 (AID 689); type: functional
Sequence of Ephrin type-A receptor 4 (Q03137 whole entry): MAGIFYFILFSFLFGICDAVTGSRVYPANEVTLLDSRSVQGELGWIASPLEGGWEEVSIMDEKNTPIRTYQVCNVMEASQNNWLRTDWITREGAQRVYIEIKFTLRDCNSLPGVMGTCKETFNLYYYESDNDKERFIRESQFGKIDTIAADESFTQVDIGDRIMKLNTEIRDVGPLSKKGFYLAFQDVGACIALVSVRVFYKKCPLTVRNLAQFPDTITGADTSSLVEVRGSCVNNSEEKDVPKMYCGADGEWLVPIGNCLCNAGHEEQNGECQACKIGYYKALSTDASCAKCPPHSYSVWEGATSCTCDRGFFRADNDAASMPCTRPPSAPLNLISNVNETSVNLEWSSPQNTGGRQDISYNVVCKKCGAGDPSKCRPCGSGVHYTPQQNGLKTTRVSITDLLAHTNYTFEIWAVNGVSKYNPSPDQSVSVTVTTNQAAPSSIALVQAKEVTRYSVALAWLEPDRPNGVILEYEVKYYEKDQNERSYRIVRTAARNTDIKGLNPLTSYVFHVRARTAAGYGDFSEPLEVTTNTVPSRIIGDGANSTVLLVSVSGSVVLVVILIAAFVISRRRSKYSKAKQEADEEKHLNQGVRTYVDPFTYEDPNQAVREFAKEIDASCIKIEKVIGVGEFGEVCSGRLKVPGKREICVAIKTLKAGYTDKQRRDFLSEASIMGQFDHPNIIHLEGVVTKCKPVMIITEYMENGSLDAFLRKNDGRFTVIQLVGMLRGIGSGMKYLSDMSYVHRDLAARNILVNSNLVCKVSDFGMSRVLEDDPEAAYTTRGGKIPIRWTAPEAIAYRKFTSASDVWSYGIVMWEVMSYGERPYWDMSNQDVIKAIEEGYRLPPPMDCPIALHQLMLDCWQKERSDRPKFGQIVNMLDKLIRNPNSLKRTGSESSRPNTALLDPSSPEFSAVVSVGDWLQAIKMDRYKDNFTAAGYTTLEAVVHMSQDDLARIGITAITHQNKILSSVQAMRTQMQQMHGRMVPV

[2] = THP-1 cell cytotoxicity, dose response, cytotoxicity control for Vif-APOBEC3G degradation inhibitor project, THP-1 cells (AID 1117359); type: functional; details: Human immunodeficiency virus 1, THP-1
[3] = molecular target: DNA (cytosine-5)-methyltransferase 1 (Homo sapiens, UniProt P26358); test: DNMT1 methyltransferase inhibitors, confirmation, biochemical, fluorescent molecular beacon (AID 602386); type: functional
Cytochrome P450 3A4 = Cytochrome P450 3A4 (Homo sapiens, UniProt P08684); details: Potency;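 note: confirmatory qHTS run detecting inhibitors and substrates of CYP3A4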
Sequence of Cytochrome P450 3A4 (P08684 whole entry): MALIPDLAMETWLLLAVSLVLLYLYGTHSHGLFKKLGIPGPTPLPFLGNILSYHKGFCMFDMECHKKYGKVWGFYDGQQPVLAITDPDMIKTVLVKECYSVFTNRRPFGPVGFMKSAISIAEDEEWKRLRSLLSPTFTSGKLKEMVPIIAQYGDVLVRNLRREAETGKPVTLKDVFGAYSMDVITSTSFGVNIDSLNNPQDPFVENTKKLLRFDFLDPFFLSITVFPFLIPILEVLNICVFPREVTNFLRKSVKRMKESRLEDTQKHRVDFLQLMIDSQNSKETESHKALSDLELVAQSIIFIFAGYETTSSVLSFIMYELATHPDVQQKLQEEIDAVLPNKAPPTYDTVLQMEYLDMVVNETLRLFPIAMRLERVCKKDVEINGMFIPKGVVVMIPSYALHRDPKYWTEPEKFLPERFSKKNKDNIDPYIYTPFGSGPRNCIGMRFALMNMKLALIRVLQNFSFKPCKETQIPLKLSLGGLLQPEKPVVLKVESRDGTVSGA

Cytochrome P450 2C19 = Cytochrome P450 2C19 (Homo sapiens, UniProt P33261); test: qHTS Assay for Inhibitors and Substrates of Cytochrome P450 2C19. [Related pubchem assays: 410 ]; type: ADME; details: read-out: Potency
Sequence of Cytochrome P450 2C19 (P33261 whole entry): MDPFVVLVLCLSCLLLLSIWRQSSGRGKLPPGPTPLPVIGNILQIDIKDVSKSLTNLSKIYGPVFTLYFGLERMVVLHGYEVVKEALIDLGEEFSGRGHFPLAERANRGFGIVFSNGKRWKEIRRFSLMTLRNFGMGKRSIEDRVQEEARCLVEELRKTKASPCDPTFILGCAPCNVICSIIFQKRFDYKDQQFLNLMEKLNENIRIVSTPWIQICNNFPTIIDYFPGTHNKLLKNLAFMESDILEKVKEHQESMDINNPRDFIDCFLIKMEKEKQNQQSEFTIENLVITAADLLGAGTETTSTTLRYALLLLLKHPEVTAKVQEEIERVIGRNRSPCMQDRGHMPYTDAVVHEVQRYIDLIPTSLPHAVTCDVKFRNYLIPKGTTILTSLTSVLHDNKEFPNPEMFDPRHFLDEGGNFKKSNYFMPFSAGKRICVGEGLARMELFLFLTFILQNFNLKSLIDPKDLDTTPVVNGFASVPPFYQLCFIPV

[4] = molecular target: E3 ubiquitin-protein ligase Mdm2 (Homo sapiens, UniProt Q00987); test: enhancers of MDM2-luciferase reporter signal, concentration-effect titration, project on inhibitors of MDM2 ubiquitin ligase, cellular assay, luminescent readout, 384-well plate format (AID 1394); type: functional;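 note: MDM2 E3 inhibitors raise luminescence so EC50 is for signal enhancement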
Sequence of E3 ubiquitin-protein ligase Mdm2 (Q00987 whole entry): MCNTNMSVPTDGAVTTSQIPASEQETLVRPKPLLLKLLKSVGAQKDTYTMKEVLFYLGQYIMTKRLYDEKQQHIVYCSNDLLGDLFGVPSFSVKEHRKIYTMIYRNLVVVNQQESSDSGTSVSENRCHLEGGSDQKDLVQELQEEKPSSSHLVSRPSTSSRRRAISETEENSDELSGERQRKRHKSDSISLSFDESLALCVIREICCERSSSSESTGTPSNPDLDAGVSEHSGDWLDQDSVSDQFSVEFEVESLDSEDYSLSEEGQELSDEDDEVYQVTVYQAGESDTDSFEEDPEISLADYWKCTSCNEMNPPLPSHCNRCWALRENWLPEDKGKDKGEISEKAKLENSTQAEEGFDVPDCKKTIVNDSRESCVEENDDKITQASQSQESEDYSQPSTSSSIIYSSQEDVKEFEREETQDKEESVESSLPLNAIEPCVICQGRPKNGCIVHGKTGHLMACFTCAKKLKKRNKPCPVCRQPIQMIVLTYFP

INS1 = test: beta cell apoptosis inhibitors, cytokine rescue, dose response, luminescence, retest (AID 449756); type: functional, cell-based; details: Rattus norvegicus;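 note: cell death triggered by IL-1 beta plus TNF-alpha plus IFN-gamma mixture; protective hits raise ATP signal compared with cytokine alone wells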
[5] = molecular target: Serine/threonine-protein phosphatase (Homo sapiens, UniProt Q9BPW0); test: PP5 phosphatase inhibitors, dose response, biochemical, fluorescence (AID 2395)
[6] = molecular target: Mitochondrial peptide methionine sulfoxide reductase (Bos taurus, UniProt P54149); type: functional;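 note: absorbance read-out, biochemical high-throughput dose-response screen for MsrA inhibitors, confirmatory; recombinant bovine MsrA coupled to E. coli TrxB with NADPH and selenocystamine; potency is for inhibitors of MsrA activity on DMSO substrate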
Sequence of Mitochondrial peptide methionine sulfoxide reductase (P54149 whole entry): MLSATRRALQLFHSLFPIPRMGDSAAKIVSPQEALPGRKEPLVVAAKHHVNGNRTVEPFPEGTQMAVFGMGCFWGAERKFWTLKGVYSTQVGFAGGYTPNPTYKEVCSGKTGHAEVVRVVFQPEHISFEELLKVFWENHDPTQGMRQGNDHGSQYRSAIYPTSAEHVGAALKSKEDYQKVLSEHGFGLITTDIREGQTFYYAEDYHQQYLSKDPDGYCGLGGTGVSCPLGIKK

[7] = cytotoxicity toward NIH3T3 fibroblasts, dose response, counter-screen, cell-based, ATP luminescence, mouse fibroblasts (AID 2010); type: functional;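 note: cells exposed to compound for about 90 hours before reading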
Protein RecA = molecular target: T1, Protein RecA (Mycobacterium tuberculosis, UniProt P9WHJ3); test: Fluorescence Cell-Free Homogeneous Dose Retest to Identify Inhibitors of RecA-Intein Splicing Activity. [Related pubchem assays (depositor defined):AID2097, AID2223, AID489010, AID492950]; type: functional
T1 sequence (P9WHJ3 whole entry): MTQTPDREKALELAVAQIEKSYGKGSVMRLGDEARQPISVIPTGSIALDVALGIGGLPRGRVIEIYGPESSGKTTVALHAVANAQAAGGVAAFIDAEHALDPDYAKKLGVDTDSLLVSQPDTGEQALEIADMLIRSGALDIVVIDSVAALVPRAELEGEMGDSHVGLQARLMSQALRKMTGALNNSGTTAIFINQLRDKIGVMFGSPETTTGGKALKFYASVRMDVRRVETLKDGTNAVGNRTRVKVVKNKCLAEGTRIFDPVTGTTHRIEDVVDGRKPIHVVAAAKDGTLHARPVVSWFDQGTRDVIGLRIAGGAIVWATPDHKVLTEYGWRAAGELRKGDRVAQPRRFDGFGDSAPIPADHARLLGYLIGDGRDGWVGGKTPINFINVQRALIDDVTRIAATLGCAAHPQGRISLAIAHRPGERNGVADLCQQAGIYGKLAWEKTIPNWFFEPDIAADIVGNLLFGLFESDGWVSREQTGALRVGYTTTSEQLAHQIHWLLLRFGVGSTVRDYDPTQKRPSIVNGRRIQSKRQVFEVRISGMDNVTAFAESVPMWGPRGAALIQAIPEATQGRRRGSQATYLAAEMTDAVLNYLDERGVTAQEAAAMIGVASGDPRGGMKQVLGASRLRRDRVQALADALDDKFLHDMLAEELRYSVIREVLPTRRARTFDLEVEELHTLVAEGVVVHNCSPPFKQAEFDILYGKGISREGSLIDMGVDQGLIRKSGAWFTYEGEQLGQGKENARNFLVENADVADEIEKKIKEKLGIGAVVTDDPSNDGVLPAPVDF

Vero = Vero cell cytotoxicity, cytotoxicity control for flavivirus capping enzyme inhibitors (AID 588742); type: functional; details: Chlorocebus sabaeus
[8] = molecular target: Serine/threonine-protein phosphatase PP1-alpha catalytic subunit (Homo sapiens, UniProt P62136); test: PP1 phosphatase inhibitors, dose response, biochemical, fluorescence (AID 2394)
Sequence of Serine/threonine-protein phosphatase PP1-alpha catalytic subunit (P62136 whole entry): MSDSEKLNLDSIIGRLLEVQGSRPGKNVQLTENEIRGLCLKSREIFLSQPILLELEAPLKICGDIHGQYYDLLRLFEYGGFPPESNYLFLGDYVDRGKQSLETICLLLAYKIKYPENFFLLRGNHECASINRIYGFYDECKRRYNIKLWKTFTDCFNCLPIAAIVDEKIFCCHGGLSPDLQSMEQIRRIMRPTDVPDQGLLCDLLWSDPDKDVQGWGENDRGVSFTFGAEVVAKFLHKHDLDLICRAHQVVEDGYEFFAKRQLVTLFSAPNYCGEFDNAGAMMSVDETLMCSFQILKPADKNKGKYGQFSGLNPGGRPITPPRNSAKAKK

[9] = molecular target: T2, Replicative DNA helicase DnaB (Mycobacterium tuberculosis, UniProt P9WMR3); test: DnaB intein splicing inhibitors, dose response, biochemical, cell-free fluorescence (AID 449749); type: functional
T2 sequence (P9WMR3 whole entry): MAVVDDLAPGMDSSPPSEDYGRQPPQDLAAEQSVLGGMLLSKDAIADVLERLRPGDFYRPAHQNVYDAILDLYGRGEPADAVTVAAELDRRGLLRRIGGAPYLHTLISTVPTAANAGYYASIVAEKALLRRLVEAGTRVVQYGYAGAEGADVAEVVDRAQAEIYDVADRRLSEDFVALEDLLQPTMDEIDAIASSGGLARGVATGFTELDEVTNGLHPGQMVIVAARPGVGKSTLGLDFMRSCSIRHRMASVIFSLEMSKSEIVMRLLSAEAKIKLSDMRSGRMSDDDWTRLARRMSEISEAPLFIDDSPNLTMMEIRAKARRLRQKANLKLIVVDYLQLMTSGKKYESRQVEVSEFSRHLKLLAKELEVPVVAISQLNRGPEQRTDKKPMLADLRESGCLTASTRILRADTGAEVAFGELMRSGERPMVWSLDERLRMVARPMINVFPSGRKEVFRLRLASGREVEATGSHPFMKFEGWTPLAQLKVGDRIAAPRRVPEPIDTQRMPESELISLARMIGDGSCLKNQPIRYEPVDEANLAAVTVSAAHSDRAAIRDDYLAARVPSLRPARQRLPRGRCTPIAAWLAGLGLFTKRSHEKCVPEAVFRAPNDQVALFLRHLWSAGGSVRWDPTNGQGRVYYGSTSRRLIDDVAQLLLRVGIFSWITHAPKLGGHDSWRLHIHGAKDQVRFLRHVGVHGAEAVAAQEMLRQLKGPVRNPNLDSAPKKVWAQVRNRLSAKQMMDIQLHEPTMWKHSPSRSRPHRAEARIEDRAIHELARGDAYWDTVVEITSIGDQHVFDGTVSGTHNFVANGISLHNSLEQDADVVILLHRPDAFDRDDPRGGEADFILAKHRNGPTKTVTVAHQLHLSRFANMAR

[10] = inhibitors of intracellular T. cruzi replication, confirmation, NIH3T3 host cells, beta-gal luminescence (AID 2044); type: functional, cell-based;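 note: intracellular parasites grown in NIH/3T3 mouse fibroblasts as host cells; luminescent beta-galactosidase reporter signal from transgenic T. cruzi replicating inside host cells; inhibitors lower the luminescence signal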
[11] = molecular target: Heat shock protein HSP 90-alpha (Homo sapiens, UniProt P07900); test: Luminescence-based dose response biochemical high throughput screening assay for inhibitors of the Heat Shock Protein 90 (HSP90). [Related pubchem assays: 1831 (Summary AID.), 1846 (Confirmation screen.), 1789 (Primary screen.)]
[12] = system: Streptococcus sp. 'group A'; test: growth inhibition of control SK(-) GAS strain, dose response, counter-screen for streptokinase expression inhibitor project, luminescence, kanamycin, BacTiterGlo, confirmation (AID 1900); type: functional, organism-based
[13] = molecular target: Protein-tyrosine kinase 2-beta (Homo sapiens, UniProt Q14289);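 note: potency of inhibitors of PYK2 kinase phosphorylation of poly-GT substrate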
Sequence of Protein-tyrosine kinase 2-beta (Q14289 whole entry): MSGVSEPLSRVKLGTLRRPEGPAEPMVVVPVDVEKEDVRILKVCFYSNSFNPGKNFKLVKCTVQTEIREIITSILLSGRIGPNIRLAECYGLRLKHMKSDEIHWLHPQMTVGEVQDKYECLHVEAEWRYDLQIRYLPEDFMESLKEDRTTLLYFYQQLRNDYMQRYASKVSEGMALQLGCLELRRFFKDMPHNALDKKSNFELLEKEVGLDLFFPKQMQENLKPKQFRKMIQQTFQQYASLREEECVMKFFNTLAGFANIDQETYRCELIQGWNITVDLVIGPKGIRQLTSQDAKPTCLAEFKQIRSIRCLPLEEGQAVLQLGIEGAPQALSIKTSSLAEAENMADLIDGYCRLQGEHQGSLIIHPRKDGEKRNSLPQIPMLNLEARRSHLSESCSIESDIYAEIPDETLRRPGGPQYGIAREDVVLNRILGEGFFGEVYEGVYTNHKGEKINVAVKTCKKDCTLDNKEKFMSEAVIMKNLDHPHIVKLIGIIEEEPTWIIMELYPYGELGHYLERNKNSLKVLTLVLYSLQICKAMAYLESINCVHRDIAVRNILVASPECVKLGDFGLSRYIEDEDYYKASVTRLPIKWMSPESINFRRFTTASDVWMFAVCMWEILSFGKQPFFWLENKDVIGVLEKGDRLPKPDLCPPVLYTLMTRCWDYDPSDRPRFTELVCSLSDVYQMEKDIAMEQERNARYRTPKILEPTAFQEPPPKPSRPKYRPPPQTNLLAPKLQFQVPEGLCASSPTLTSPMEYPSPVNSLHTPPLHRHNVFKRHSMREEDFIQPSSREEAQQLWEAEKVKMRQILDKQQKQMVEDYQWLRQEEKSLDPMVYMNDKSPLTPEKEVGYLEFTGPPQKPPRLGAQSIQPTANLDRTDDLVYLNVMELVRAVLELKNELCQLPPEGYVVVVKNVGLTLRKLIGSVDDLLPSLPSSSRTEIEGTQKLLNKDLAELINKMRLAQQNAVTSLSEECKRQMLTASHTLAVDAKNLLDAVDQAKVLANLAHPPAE

[14] = molecular target: T3, Apoptotic protease-activating factor 1 (Homo sapiens, UniProt O14727); type: functional
T3 sequence (O14727 whole entry): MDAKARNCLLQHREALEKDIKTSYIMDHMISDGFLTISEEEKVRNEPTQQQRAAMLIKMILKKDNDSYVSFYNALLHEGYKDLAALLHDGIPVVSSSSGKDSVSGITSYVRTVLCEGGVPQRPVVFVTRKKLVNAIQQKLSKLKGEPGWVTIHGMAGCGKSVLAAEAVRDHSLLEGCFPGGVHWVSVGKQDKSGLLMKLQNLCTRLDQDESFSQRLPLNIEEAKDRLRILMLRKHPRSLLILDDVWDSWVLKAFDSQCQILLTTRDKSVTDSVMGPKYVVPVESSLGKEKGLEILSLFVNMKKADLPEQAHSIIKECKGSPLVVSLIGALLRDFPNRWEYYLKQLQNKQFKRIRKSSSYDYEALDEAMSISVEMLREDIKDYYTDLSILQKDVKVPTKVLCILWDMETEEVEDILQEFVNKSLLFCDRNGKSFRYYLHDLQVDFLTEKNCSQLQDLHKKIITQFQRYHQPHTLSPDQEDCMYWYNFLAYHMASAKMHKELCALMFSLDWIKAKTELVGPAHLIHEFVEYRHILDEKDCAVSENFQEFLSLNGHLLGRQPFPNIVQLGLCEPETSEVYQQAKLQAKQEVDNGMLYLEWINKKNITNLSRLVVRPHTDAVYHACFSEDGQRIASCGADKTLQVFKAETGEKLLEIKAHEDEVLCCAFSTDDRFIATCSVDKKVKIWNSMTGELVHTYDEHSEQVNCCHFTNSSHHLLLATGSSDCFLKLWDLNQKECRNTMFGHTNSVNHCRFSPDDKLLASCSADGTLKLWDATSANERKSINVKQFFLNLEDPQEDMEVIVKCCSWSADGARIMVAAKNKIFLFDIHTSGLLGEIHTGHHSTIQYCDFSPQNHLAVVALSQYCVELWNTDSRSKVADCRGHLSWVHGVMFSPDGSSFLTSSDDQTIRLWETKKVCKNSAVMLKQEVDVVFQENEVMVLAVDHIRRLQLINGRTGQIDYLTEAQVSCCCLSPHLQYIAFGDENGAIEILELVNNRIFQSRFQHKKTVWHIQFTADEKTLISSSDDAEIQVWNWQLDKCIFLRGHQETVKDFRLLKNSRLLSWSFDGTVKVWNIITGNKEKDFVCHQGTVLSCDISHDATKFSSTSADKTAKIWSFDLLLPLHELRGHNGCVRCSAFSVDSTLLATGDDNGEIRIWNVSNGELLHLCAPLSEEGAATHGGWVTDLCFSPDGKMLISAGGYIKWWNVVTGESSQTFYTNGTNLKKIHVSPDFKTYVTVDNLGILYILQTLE

Streptococcus = test: Group A Streptococcus viability loss, dose response, counter-screen for streptokinase expression inhibitor project, luminescence, BacTiterGlo (AID 1915); type: functional, organism-based;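 note: potency for reduction of bacterial viability or growth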
[15] = cytotoxicity in HEK-293T cells, dose response, cytotoxicity control for TCR NF-kB inhibitor project, luminescence, T-cell screen hits (AID 489026); type: functional, cell-based;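 note: cells exposed to compound about 14 hours before the viability readout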
[16] = microbe, parasite or virus in culture; type: functional; details: Mycobacterium tuberculosis
[17] = molecular target: 5-hydroxytryptamine receptor 1A (Homo sapiens, UniProt P08908); type: functional
Sequence of 5-hydroxytryptamine receptor 1A (P08908 whole entry): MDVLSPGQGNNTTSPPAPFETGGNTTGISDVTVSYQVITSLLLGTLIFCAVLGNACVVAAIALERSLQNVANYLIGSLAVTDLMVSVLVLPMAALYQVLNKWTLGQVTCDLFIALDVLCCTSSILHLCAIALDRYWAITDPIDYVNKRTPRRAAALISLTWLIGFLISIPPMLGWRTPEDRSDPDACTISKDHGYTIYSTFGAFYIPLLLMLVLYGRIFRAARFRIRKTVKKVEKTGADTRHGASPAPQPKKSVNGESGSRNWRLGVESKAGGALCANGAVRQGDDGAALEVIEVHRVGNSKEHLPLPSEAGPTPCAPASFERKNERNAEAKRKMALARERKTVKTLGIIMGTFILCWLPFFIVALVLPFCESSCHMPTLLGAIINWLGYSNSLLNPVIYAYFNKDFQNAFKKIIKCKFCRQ

## O=C1CCCC2=C1C(c1ccco1)Nc1ccc3ccccc3c12 (stereo not given)
Bcl-2-like protein 10
  IC50: 7.53 µM (active)
[1]
  IC50: 3.2 µM (active)
Ephrin type-A receptor 4
  IC50: 11.8 µM (active)
[2]
  CC50: > 40 µM (active)
[3]
  IC50: 6.62 µM (active)

## O=c1cc(-c2ccccc2O)oc2c1ccc1ccccc12
Cytochrome P450 3A4
  AC50: 15.8 µM (inconclusive)
Cytochrome P450 2C19
  AC50: 0.251 µM (inconclusive)

## CCN(CC)C(=O)CN1CCN(c2ncccn2)CC1
[4]
  EC50: 16.1 µM (not active)

## Cc1ccccc1NC1=C/C(=N\S(=O)(=O)c2cccs2)c2ccccc2C1=O
INS1
  AC50: 0.413 µM (active)
[5]
  IC50: 1.83 µM (active)
[6]
  IC50: 692 µM (inactive)
[7]
  EC50: 1.95 µM (active)
Protein RecA
  EC50: 0.654 µM (active)
Vero
  CC50: 4.33 µM (active)
[8]
  IC50: > 22.3 µM (not active)
[9]
  AC50: > 120 µM (inactive)
[10]
  EC50: 1.04 µM (active)
[11]
  IC50: 0.438 µM (active)
[12]
  EC50: 0.701 µM (active)
[13]
  IC50: > 69.5 µM (not active)
[14]
  IC50: 0.335 µM (active)
Streptococcus
  EC50: 4.55 µM (active)
[15]
  IC50: 0.44 µM (active)
[16]
  CC50: 3.13 µM (active)

## CCN1CC=C(c2c[nH]c3ccccc23)CC1
[17]
  EC50: > 50 µM (not active)
